# In the supplement of paper PMC8149375:
# What was measured:
# Details in all cases: treatment: drug alone; 5 days
# [1] = tested on: 786-O; test: AUC of dose-response viability curve, drug alone (arbitrary (AUC of normalised viability)); higher = less growth inhibition
# Description: (§1)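 Primary HTS: 8 RCC cell lines treated with 8 doses (up to 10 uM) of each library drug alone for 5 days; viability read by CellTiter-Glo and normalised to DMSO. GI50 was fitted with XLfit (4-parameter), AUC is the area under the dose-response curve, and minimum viability is the lowest fraction of DMSO viability across doses.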
# [2] = tested on: 769-P; test: as above
# Description: as §1
# [3] = tested on: ACHN; test: as above
# Description: as §1
# [4] = tested on: TK-10; test: as above
# Description: as §1
# [5] = tested on: A498; test: as above
# Description: as §1
# [6] = tested on: UO-31; test: as above
# Description: as §1
# [7] = tested on: CAKI-1; test: as above
# Description: as §1
# [8] = tested on: SN12C; test: as above
# Description: as §1
# [9] = tested on: 786-O; test: GI50, drug alone; higher = less potent
# Description: as §1
# [10] = tested on: 769-P; test: GI50, drug alone; higher = less potent
# Description: as §1
# [11] = tested on: ACHN; test: GI50, drug alone; higher = less potent
# Description: as §1
# [12] = tested on: TK-10; test: GI50, drug alone; higher = less potent
# Description: as §1
# [13] = tested on: A498; test: GI50, drug alone; higher = less potent
# Description: as §1
# [14] = tested on: UO-31; test: GI50, drug alone; higher = less potent
# Description: as §1
# [15] = tested on: CAKI-1; test: GI50, drug alone; higher = less potent
# Description: as §1
# [16] = tested on: SN12C; test: GI50, drug alone; higher = less potent
# Description: as §1
# [17] = tested on: 786-O; test: minimum viability across doses, drug alone, relative to DMSO (fraction); higher = less growth inhibition
# Description: as §1
# [18] = tested on: 769-P; test: as above
# Description: as §1
# [19] = tested on: ACHN; test: as above
# Description: as §1
# [20] = tested on: TK-10; test: as above
# Description: as §1
# [21] = tested on: A498; test: as above
# Description: as §1
# [22] = tested on: UO-31; test: as above
# Description: as §1
# [23] = tested on: CAKI-1; test: as above
# Description: as §1
# [24] = tested on: SN12C; test: as above
# Description: as §1
"GI50, drug alone [9] [µM]","GI50, drug alone [11] [µM]",Compound,AUC of dose-response viability curve [1],AUC of dose-response viability curve [2],AUC of dose-response viability curve [3],AUC of dose-response viability curve [4],AUC of dose-response viability curve [5],AUC of dose-response viability curve [6],AUC of dose-response viability curve [7],AUC of dose-response viability curve [8],"GI50, drug alone [10] [µM]","GI50, drug alone [12] [µM]","GI50, drug alone [13] [µM]","GI50, drug alone [14] [µM]","GI50, drug alone [15] [µM]","GI50, drug alone [16] [µM]",minimum viability across doses [17],minimum viability across doses [18],minimum viability across doses [19],minimum viability across doses [20],minimum viability across doses [21],minimum viability across doses [22],minimum viability across doses [23],minimum viability across doses [24]
0.809,1.9,Cc1ccc(C(=O)Nc2cccc(C(F)(F)F)c2)cc1Nc1nc(-c2cccnc2)nc2c1cnn2C [NVP-BHG712],2.18,3.13,2.89,2.45,3.97,5.14,3.03,3.15,3.81,1.34,8.45,8.28,2.45,4.56,0.00203,0.06,0.109,0.0678,0.023,0.00612,0.0328,0.0886
3.95,1.6,Cl.Cl.Fc1cc(-c2cccc3ncc(-c4cnn(C5CCNCC5)c4)nc23)cc(F)c1CN1CCOCC1 [NVP-BSK805],2.23,3.09,2.62,2.63,3.8,4.15,2.74,2.87,5.73,3.4,7.77,8.51,2.39,7.39,0.00287,0.0465,0.0296,0.212,0.0305,0.00823,0.0193,0.331
0.589,1.32,Cn1cc(-c2ccc3ncc(Cc4ccc5ncccc5c4)n3n2)cn1 [NVP-BVU972],2.24,3.07,2.78,2.58,3.94,4.11,2.77,2.75,> 10,1.3,2.53,1.4,1.17,1.4,0.00923,0.0466,0.0166,0.12,0.0174,0.018,0.0623,0.0229
0.0528,0.962,CNC(=O)c1ccccc1Nc1nc(Nc2ccc(N3CCOCC3)cc2OC)ncc1Cl [NVP-TAE226],1.15,2.93,2.43,2.12,4.76,3.21,2.64,2.95,2.76,0.551,> 10,8.15,1.36,5.13,0.00915,0.29,0.102,0.102,0.703,0.398,0.0558,0.295
0.0283,> 10,CN1C(=O)C(Cc2c[nH]c3ccccc23)NC1=S (configuration not stated) [Necrostatin-1],2.03,3.6,2.99,2.91,4.28,4.83,3.5,3.29,> 10,> 10,> 10,> 10,> 10,> 10,0.334,0.968,0.79,0.729,0.888,1.01,0.916,0.868
0.756,0.0771,CCOc1cc2ncc(C#N)c(Nc3ccc(OCc4ccccn4)c(Cl)c3)c2cc1NC(=O)/C=C/CN(C)C [Neratinib (HKI-272)],2.38,2.43,1.48,1.77,3.99,4.06,2.11,2.44,1.14,0.161,> 10,> 10,0.407,1.35,0.345,0.0782,0.117,0.251,0.894,0.697,0.161,0.315
> 10,> 10,Cc1cn(-c2cc(NC(=O)c3ccc(C)c(Nc4nccc(-c5cccnc5)n4)c3)cc(C(F)(F)F)c2)cn1 [Nilotinib (AMN-107)],3.8,3.46,3.32,2.96,4.05,4.08,3.76,3.37,> 10,> 10,> 10,> 10,> 10,> 10,0.827,0.93,0.797,0.56,0.788,0.654,0.763,0.877
> 10,5.64,COc1ccc(C2=NC(c3ccc(Cl)cc3)C(c3ccc(Cl)cc3)N2C(=O)N2CCNC(=O)C2)c(OC(C)C)c1 (configuration not stated) [Nutlin-3],3.29,3.42,2.82,2.99,3.9,4.29,3.34,3.31,> 10,> 10,> 10,> 10,8.04,> 10,0.756,0.677,0.278,0.805,0.914,0.99,0.383,0.846
1.66,1.91,COc1cccc2cc(-c3nc([C@H]4CC[C@H](C(=O)O)CC4)n4ncnc(N)c34)[nH]c12 [OSI-027],2.49,3.12,2.85,2.64,3.75,3.1,2.58,2.77,8.49,1.93,9.27,2.52,1.17,2.39,0.185,0.408,0.105,0.191,0.148,0.00484,0.0475,0.168
0.101,0.827,C#Cc1cccc(Nc2ncnc3cc(OCCOC)c(OCCO)cc23)c1.Cl [OSI-420 (Desmethyl Erlotinib)],2.49,2.69,2.38,2.29,3.79,3.38,2.79,2.95,3.59,2.42,> 10,> 10,3.01,> 10,0.443,0.36,0.101,0.416,0.92,0.906,0.159,0.6
7.47,5.42,O=C(Nc1ccc(OC(F)(F)F)cc1)c1sccc1NCc1ccnc2ccccc12 [OSI-930],2.81,3.39,3.25,3.23,3.58,3.46,3.63,3.5,> 10,> 10,> 10,1.35,8.11,8.32,0.372,0.871,0.175,0.572,0.722,0.173,0.264,0.158
0.00753,0.0811,COC1=CC(c2cc3ccccc3[nH]2)=N/C1=C\c1[nH]c(C)cc1C.CS(=O)(=O)O [Obatoclax mesylate (GX15-070)],0.668,2.01,1.41,1.79,1.95,2.07,2.23,1.74,0.309,0.185,0.438,0.158,0.379,0.213,0.0051,0.0323,0.0118,0.17,0.00496,0.00526,0.011,0.00313
0.61,0.74,C=CCc1cccc(/C=N/NC(=O)CN2CCN(Cc3ccccc3)CC2)c1O [PAC-1],2.18,2.94,2.23,2.69,3.43,3.29,3.2,3.01,2.32,1.62,8.78,1.7,3.23,3.35,0.00713,0.0295,0.0162,0.0835,0.368,0.0166,0.117,0.138
> 10,> 10,CCCCCCCCCCCCc1ccc(S(=O)(=O)Nc2nncs2)cc1 [PHT-427],2.32,3.26,3.08,2.94,4.29,4.78,3.62,3.22,> 10,> 10,> 10,> 10,> 10,> 10,0.512,0.855,0.824,0.797,1.05,1.14,0.959,0.858
0.355,0.286,Oc1cccc(-c2nc(N3CCOCC3)c3oc4ncccc4c3n2)c1 [PI-103],2,2.53,2.08,2.15,2.26,1.8,2.37,1.91,1.36,0.527,0.584,0.339,0.858,0.36,0.00638,0.0599,0.119,0.136,0.0881,0.0085,0.0544,0.118
0.0402,0.0301,Cc1ccc([N+](=O)[O-])cc1S(=O)(=O)N(C)/N=C/c1cnc2ccc(Br)cn12.Cl [PIK-75],1.09,1.61,1.01,1.56,1.5,1.71,0.988,1.33,0.117,0.0705,0.0821,0.084,0.0258,0.07,0.00345,0.0087,0.00398,0.121,0.0119,0.00672,0.0354,0.00713
> 10,> 10,COc1ccc2c(c1OC)N=C(NC(=O)c1cccnc1)N1CCN=C21 [PIK-90],2.46,3.07,3.1,2.75,3.98,3.42,2.42,2.7,> 10,> 10,> 10,> 10,3.06,3.41,0.53,0.693,0.655,0.616,1.02,0.822,0.358,0.175
0.746,7.46,CC(=O)Nc1nc(C)c(-c2ccc(Cl)c(S(=O)(=O)NCCO)c2)s1 [PIK-93],1.86,3.19,3.14,2.74,4.19,4.68,3.11,2.98,> 10,8.01,> 10,> 10,5.07,8.03,0.202,0.565,0.408,0.377,0.8,1.15,0.287,0.434
